Experimental data from EP4763837A1, “PHOTOCHROMIC COMPOUND, CURABLE COMPOSITION, OPTICAL ARTICLE, LENS, AND EYEGLASSES” (TOKUYAMA CORPORATION, priority 2023, dated 2025).
“And” between values parts separate entries of the source, which are not always exact repeats. Equal values may be shown once.

Key:
Type in all cases: physicochemical
[1] = Photochromic property of binder sheet (photochromic layer made by binder method); settings: for Color developing density at 23°C: absorbance difference after 240 seconds irradiation at the maximum absorption wavelength of the same line; for Residual ratio: A96/A0 x 100 after 96 hours accelerated degradation, xenon weather meter X25
Description: (§1) The resulting photochromic laminates were evaluated by the below-mentioned methods. • (1) Photochromic property • [1] Maximum absorption wavelength (λmax): This is the maximum absorption wavelength after color development determined by a spectrophotometer manufactured by Otsuka Electronics Co., Ltd. (instantaneous multichannel photo detector MCPD3000) and was used as an index of a color tone upon color development. • [2] Color developing density at 23°C (A23): This is a difference between an absorbance {ε(240)} after irradiation with light at 23°C for 240 seconds and an absorbance ε(0) when not irradiated with light at the maximum absorption wavelength and was used as an index of a color developing density. The higher this value is, the better a photochromic property is. • [3] Color fading half-life at 23°C [τ1/2 (sec).)]: This is a period of time taken by an absorbance at the maximum absorption wavelength of a sample to decrease to 1/2 of {ε(240)-ε(0)} when irradiation is stopped after irradiation with light at 23°C for 240 seconds, and was used as an index of a color fading rate. The shorter this period of time is, the faster the color fading rate is. • [4] Residual ratio (A96/A0 x 100): The resulting photochromic plastic lens was subjected to accelerated degradation for 96 hours using a xenon weather meter X25 manufactured by Suga Test Instruments Co., Ltd. Color developing densities were then evaluated before and after a test, and a color developing density before the test (A0) and a color developing density after the test (A96) were measured. A ratio (A96/A0) was determined as a residual ratio and was used as an index of color development durability. The higher the residual ratio is, the more durable the color development is.
A binder sheet was produced as follows. The binder sheet was made by laminating a first optical sheet, a first adhesive layer, a photochromic layer, a second adhesive layer, and a second optical sheet in this order. A polycarbonate sheet with a thickness of 400 µm was used as the first optical sheet and the second optical sheet.
A 2 L four-necked flask equipped with a stirring blade, a condense tube, a thermometer, and a nitrogen gas inlet tube was charged with 315 parts by mass of polycarbonate diol with a number average molecular weight of 1000, 100 parts by mass of isophorone diisocyanate, and 72 parts by mass of toluene and reacted under a nitrogen atmosphere at 100°C for 7 hours. Thus, a urethane prepolymer with a terminal isocyanate group was synthesized. After the reaction of the above-mentioned urethane prepolymer was completed, the resulting reaction liquid was cooled to about 0°C and dissolved in 205 parts by mass of tertiary-butyl alcohol and 382 parts by mass of diethyl ketone, and then a temperature of the resulting liquid was kept at 0°C. Next, a mixed solution of 21.3 parts by mass of bis-(4-aminocyclohexyl)methane serving as a chain extender and 20 parts by mass of diethyl ketone was added dropwise thereto within 30 minutes and reacted at 0°C for 1 hour. Then, 8.1 parts by mass of 1,2,2,6,6-pentamethyl-4-aminopiperidine was added dropwise thereto and reacted at 0°C for 1 hour to obtain a solution of a terminal non-reactive urethane urea resin in diethylketone.
One hundred parts by mass of the resulting solution of a terminal non-reactive urethane urea resin, 6.3 parts by mass of Example 1 (a photochromic compound represented by Formula (1-7), an isomer mixture of 4,4'-methylenebis(cyclohexylisocyanate) (polyisocyanate compound)), 0.4 parts by mass of ethylenebis(oxyethylene) bis[3-(5-tert-butyl-4-hydroxy-m-tolyl) propionate] serving as an antioxidant, and 0.06 parts by mass of L-7001 manufactured by DuPont Toray Specialty Materials K.K. serving as a surfactant were added and stirred and mixed at room temperature to obtain a composition for forming a photochromic layer. […]

[2] = Photochromic property of photochromic laminate made by coating method; settings: for Residual ratio: laminate by coating method, A96/A0 x 100 after 96 hours accelerated degradation, xenon weather meter X25
Method in brief: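 Compound at 0.25 mmol per 100 g methacrylate monomer mix, spin-coated 40 µm on a primed thiourethane lens, photocured 90 s under N2, then 110°C for 1 h. λmax and A23 measured after 240 s irradiation at 23°C; τ1/2 is time to half-fade after irradiation stops. Residual ratio A96/A0 after 96 h xenon weathering.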

[3] = Photochromic property of photochromic cured product made by kneading method; settings: for Residual ratio: A96/A0 x 100 after 96 hours accelerated degradation, xenon weather meter X25; for Color developing density at 23°C: absorbance difference after 240 seconds irradiation at the maximum absorption wavelength of the same line
Description: as §1
First, the photochromic compound obtained in Example 1, an additive, and a polymerizable compound were mixed to obtain a curable composition. The polymerizable compound was a combination of the following polymerizable monomers: • · 1,3-Bis(isocyanatomethyl)cyclohexane: 36.7 parts by mass • · Pentaerythritol tetrakis(3-mercaptopropionate): 39.4 parts by mass • · Polyoxyethylene polyoxypropylene lauryl ether (WONDERSURF 140 manufactured by AOKI OIL INDUSTRIAL Co., Ltd.): 17.4 parts by mass • · 1-Decanethiol: 2.8 parts by mass • · RX-1 prepared by the method described in Patent Document 14: 3.8 parts by mass
Note that, in the curable composition, the photochromic compound was added in an amount of 0.106 mmol taking a total amount of the polymerizable monomers as 100 g.
The following additives were used: • · Dimethyltin dichloride: 0.05 parts by mass • · Irganox 245: 0.1 parts by mass • · 2-Ethylhexyl […]: 0.6 parts by mass
After the thus-prepared curable composition was thoroughly defoamed, it was poured into a glass mold with a gap of 1 mm and polymerized by casting polymerization. […] After the polymerization, the resulting cured product was removed from the glass mold to obtain a photochromic cured product with a thickness of 1 mm. The resulting photochromic cured product was evaluated in the same manner as for Example 23.
Photochromic cured products were produced using the photochromic compounds shown in Table 4 in the same manner as in Example 50.

| Structure (SMILES) | Color developing density at 23°C [1] | Color fading half-life at 23°C [2] [s] | Residual ratio [2] [%] | Residual ratio [3] | Color developing density at 23°C [3] | Residual ratio [1] |
| --- | --- | --- | --- | --- | --- | --- |
| CCCCC1(CC)c2ccccc2-c2c1c1c(c3cc(OC)c(C)cc23)OC(c2ccc(OC)cc2)(c2ccc(OCCC)cc2)C=C1 (stereo not drawn) [Formula (2-2)] | 0.89 - and 0.83 - | 99 | 68 | 78% | 0.90 - and 0.89 - | – |
| CCCC1(CC)c2ccccc2-c2c1c1c(c3cc(OC)c(Sc4c(C)cccc4C)cc23)OC(c2ccc(OC)cc2)(c2ccc(N3CCOCC3)cc2)C=C1 (stereo not drawn) [Formula (4-5)] | 0.76 - and 0.75 - | 43 | – | 79% and 77% | 0.77 - and 0.74 - | 90% |
| CCC1(C)c2ccccc2-c2c1c1c(c3cc(OC)c(-c4ccc(OC)cc4OC)cc23)OC(c2ccc(OC)cc2)(c2ccc(N(C)c3ccccc3)cc2)C=C1 (stereo not drawn) [Formula (13-2)] | 0.74 - and 1.05 - | – | 63 | 72% and 71% | 0.75 - and 1.05 - | 82% and 83% |
